Assay results reported in ChEMBL document CHEMBL1201862, “PubChem BioAssay data set” (2004).
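Test compounds were applied to cells in 96-well plates for 48 hours at 5 doses. Here, GI50 denotes the concentration required for 50% inhibition of growth.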 The source made the active and inactive calls. No stated cut-off is given here; in the data, active = GI50 up to about 1.1 µM and inactive = higher.

Legend:
Assay in all cases: inhibition of tumour cell growth, NCI panel, 48 h
HCT-116 = system: HCT-116
MDA-N = system: MDA-N
A549 = system: A549
SF-539 = system: SF-539
NCI-H522 = system: NCI-H522
Hs-578T = system: Hs-578T
SN12C = system: SN12C
Malme-3M = system: Malme-3M
NCI-H226 = system: NCI-H226
OVCAR-8 = system: OVCAR-8
MCF7 = system: MCF7
M14 = system: M14
U-251 = system: U-251
NCI-H460 = system: NCI-H460
SK-OV-3 = system: SK-OV-3
786-0 = system: 786-0
KM12 = system: KM12
SK-MEL-28 = system: SK-MEL-28
MDA-MB-231 = system: MDA-MB-231
HCC 2998 = system: HCC 2998

Measured: GI50

c1ccc(CN2CCC(CNc3ncnc4ccccc34)C2)cc1 (centres undefined)
inactive: HCT-116 40.5 µM | MDA-N 47.1 µM | A549 > 100 µM | SF-539 68.5 µM | NCI-H522 23 µM | Hs-578T 58.5 µM | SN12C 98.6 µM | Malme-3M 19.5 µM | NCI-H226 76.9 µM | OVCAR-8 83 µM | MCF7 50.2 µM | M14 17.3 µM | U-251 76.9 µM | NCI-H460 44.3 µM | SK-OV-3 > 100 µM | 786-0 > 100 µM | KM12 > 100 µM | SK-MEL-28 25.9 µM | MDA-MB-231 > 100 µM

CC(C)C(/N=C/c1ccccc1O)C(=O)O (centres undefined)
inactive: HCT-116 > 100 µM | MDA-N > 100 µM | A549 > 100 µM | SF-539 > 100 µM | NCI-H522 > 100 µM | Hs-578T 59.2 µM | SN12C > 100 µM | Malme-3M 55.3 µM | NCI-H226 > 100 µM | OVCAR-8 > 100 µM | MCF7 > 100 µM | M14 > 100 µM | U-251 > 100 µM | NCI-H460 > 100 µM | SK-OV-3 > 100 µM | 786-0 > 100 µM | KM12 > 100 µM | SK-MEL-28 > 100 µM | MDA-MB-231 87.9 µM

O=C1Nc2ccc(Br)cc2/C1=N/N1C(=O)C(=O)N(C2CCCCC2)C1=S
inactive: HCT-116 2.72 µM | MDA-N 2.02 µM | A549 5.26 µM | SF-539 5.66 µM | Hs-578T 8.38 µM | SN12C 3.43 µM | Malme-3M 3.21 µM | NCI-H226 7.03 µM | MCF7 4.17 µM | M14 1.64 µM | U-251 2.93 µM | NCI-H460 3.66 µM | HCC 2998 3.64 µM | SK-OV-3 4.33 µM | 786-0 5.46 µM | KM12 3.48 µM | SK-MEL-28 4.07 µM | MDA-MB-231 6.64 µM

O=c1cc(CO)n(CCc2c[nH]c3ccccc23)cc1O
inactive: HCT-116 71.9 µM | MDA-N 21.3 µM | A549 > 100 µM | SF-539 > 100 µM | NCI-H522 24.7 µM | Hs-578T 28.1 µM | SN12C 36.2 µM | Malme-3M 13.4 µM | OVCAR-8 69.7 µM | MCF7 25.1 µM | M14 47.1 µM | U-251 39.6 µM | NCI-H460 33.3 µM | SK-OV-3 48.4 µM | 786-0 34.8 µM | KM12 42.1 µM | MDA-MB-231 31.3 µM

COc1cc(/C=C2\N=C(c3ccccc3)N(c3nc4c(OC)ccc(OC)c4s3)C2=O)cc(OC)c1OC
inactive: HCT-116 66.8 µM | MDA-N 35.8 µM | A549 > 100 µM | NCI-H522 35.7 µM | Hs-578T > 100 µM | SN12C > 100 µM | Malme-3M > 100 µM | OVCAR-8 86.1 µM | MCF7 34.3 µM | M14 > 100 µM | U-251 56.1 µM | NCI-H460 > 100 µM | HCC 2998 > 100 µM | SK-OV-3 > 100 µM | 786-0 55 µM | KM12 61.8 µM | SK-MEL-28 > 100 µM | MDA-MB-231 > 100 µM

CCCCCCCC1(N=[N+]=[N-])C(=O)Nc2ccccc2C1=O (centres undefined)
inactive: HCT-116 17.3 µM | MDA-N 19.8 µM | A549 14.8 µM | SF-539 15.7 µM | Hs-578T 17.5 µM | SN12C 18.7 µM | Malme-3M 17.7 µM | MCF7 19.1 µM | M14 17.7 µM | U-251 15.1 µM | NCI-H460 21.4 µM | HCC 2998 20.6 µM | SK-OV-3 15.7 µM | 786-0 16.6 µM | KM12 22.5 µM | SK-MEL-28 16.1 µM | MDA-MB-231 21.7 µM

CCOc1cc(C(c2c(O)c3ccccc3oc2=O)c2c(O)c3ccccc3oc2=O)ccc1OC
inactive: HCT-116 19.5 µM | MDA-N 18.1 µM | A549 38.6 µM | SF-539 20.7 µM | NCI-H522 18.3 µM | Hs-578T 26.8 µM | SN12C 18.8 µM | Malme-3M 19.8 µM | NCI-H226 23.3 µM | OVCAR-8 20 µM | MCF7 21 µM | M14 19.1 µM | U-251 15.8 µM | SK-OV-3 16.7 µM | 786-0 18.3 µM | KM12 18.2 µM | SK-MEL-28 28.1 µM | MDA-MB-231 16 µM

FC1(F)SC2CCCCCCCCCCC2C1(F)F (centres undefined)
inactive: HCT-116 18.4 µM | MDA-N 37.6 µM | A549 35 µM | NCI-H522 21.8 µM | Hs-578T 36.1 µM | Malme-3M 21.8 µM | NCI-H226 33.3 µM | OVCAR-8 40.9 µM | MCF7 20.2 µM | M14 39.7 µM | U-251 28.5 µM | SK-OV-3 61.7 µM | 786-0 56.4 µM | SK-MEL-28 18.5 µM | MDA-MB-231 22.8 µM

Nc1cc2c(nnn2C2OC(COCc3ccccc3)C(OCc3ccccc3)C2OCc2ccccc2)c(=O)[nH]1 (centres undefined)
inactive: HCT-116 10.6 µM | MDA-N 10.2 µM | A549 13.5 µM | SF-539 21.6 µM | NCI-H522 18.9 µM | Hs-578T 97.1 µM | SN12C 9.59 µM | Malme-3M 27.7 µM | NCI-H226 15.5 µM | OVCAR-8 18.9 µM | MCF7 5.48 µM | M14 13.5 µM | U-251 9.86 µM | NCI-H460 15.9 µM | SK-OV-3 33.3 µM | 786-0 19.6 µM | KM12 13 µM | SK-MEL-28 46.9 µM | MDA-MB-231 21.6 µM

CC1(c2ccc(Cl)cc2)CC(c2ccc(Cl)cc2)=C(C#N)C(=C(C#N)C#N)N1 (centres undefined)
inactive: HCT-116 14.6 µM | MDA-N 19 µM | A549 20.4 µM | SF-539 18.4 µM | Hs-578T 19.9 µM | SN12C 15 µM | Malme-3M 15.7 µM | NCI-H226 18.5 µM | OVCAR-8 14.9 µM | MCF7 18.9 µM | M14 18.5 µM | U-251 12.2 µM | NCI-H460 22.9 µM | HCC 2998 13.2 µM | SK-OV-3 16.9 µM | 786-0 11.1 µM | KM12 19.9 µM | SK-MEL-28 32.7 µM | MDA-MB-231 22.5 µM

C[C@H]1S[C@H](c2c(Cl)cccc2Cl)N2Cc3ccccc3N=C12
inactive: HCT-116 4.35 µM | MDA-N 21 µM | A549 15.2 µM | SF-539 14.7 µM | Hs-578T 10.8 µM | SN12C 29.2 µM | MCF7 14.2 µM | M14 11.6 µM | U-251 23.4 µM | NCI-H460 11.3 µM | HCC 2998 14.4 µM | SK-OV-3 17.7 µM | 786-0 8.49 µM | KM12 12 µM | MDA-MB-231 23.9 µM
